The text below walks through data of publication PMC5025758 (Nature Communications, 2016).

One experiment addresses NQO2 (Homo sapiens, UniProt P16083). Nature of the experiment: chemoproteomic competition binding in mixed HEK293/K562/placenta extract, LC-MS/MS. It counts as biochemical.
In another experiment the target is T1, KasA (Mycobacterium tuberculosis, UniProt P9WQD9).
T1 construct: recombinant KasA from pET28a-kasA
Nature of the experiment: […] Å co-crystal structure; […]; also chemoproteomic Kd app […] and […] enzyme inhibition at […]. It is filed as binding.

In another experiment the target is Pks10 (Mycobacterium tuberculosis, UniProt Q7VEV2). It counts as biochemical.
Pks10, sequence (Q7VEV2 whole entry, looked up): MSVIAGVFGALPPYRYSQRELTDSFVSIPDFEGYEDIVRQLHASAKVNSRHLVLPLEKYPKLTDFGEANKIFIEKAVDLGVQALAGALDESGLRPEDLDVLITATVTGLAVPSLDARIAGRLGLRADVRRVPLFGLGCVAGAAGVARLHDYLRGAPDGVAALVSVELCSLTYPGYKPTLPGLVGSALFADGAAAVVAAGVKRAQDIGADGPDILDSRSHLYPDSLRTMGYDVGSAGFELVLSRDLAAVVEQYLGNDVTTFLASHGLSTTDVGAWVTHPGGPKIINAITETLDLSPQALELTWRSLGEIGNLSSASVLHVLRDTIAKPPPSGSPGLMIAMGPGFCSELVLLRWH
The target in the next experiment is T2, Adrenergic α1B (Homo sapiens, UniProt P35368).
T2 construct: gene ADRA1B
T2 sequence (P35368 whole entry): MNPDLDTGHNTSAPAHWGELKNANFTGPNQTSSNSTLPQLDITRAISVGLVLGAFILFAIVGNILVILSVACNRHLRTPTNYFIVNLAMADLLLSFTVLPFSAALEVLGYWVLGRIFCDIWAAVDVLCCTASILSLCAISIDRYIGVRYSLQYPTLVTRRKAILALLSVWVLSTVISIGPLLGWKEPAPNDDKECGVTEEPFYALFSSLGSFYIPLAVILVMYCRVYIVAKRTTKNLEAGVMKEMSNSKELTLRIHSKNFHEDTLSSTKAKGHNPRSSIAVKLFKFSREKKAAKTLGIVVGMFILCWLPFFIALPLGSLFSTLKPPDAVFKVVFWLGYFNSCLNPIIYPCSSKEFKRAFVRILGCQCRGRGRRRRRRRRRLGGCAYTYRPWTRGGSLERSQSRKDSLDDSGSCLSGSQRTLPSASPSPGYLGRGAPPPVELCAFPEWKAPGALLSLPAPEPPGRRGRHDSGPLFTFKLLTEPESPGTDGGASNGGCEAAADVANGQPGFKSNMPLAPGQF
As to the kind of experiment: cell-based. Particulars: antagonist mode; read-out: pXC50 (antagonist) (converted). Details: off-target selectivity panel, receptor antagonist, channel blocker or transporter inhibition mode, pXC50. The source says: (§1) From the outset, GSK3011724A, an indazole sulfonamide (Fig. 1a), represented an attractive compound for early stage drug discovery based on its anti-mycobacterial potency, small size and moderate lipophilicity (Table 1). Further profiling in vitro using standard assays, such as the hERG ion channel and cytochrome P450 isoforms supported this view (Table 1). […] A description of this optimization effort along with a thorough discussion of the drug development potential and liabilities of this series will be the subject of a future publication.

A further experiment concerns the target T3, Adrenergic β2 (Homo sapiens, UniProt P07550).
T3 construct: gene ADRB2
Nature of the experiment: cell-based. Details: off-target selectivity panel, receptor antagonist, channel blocker or transporter inhibition mode, pXC50. Particulars: antagonist mode; read-out: pXC50 (antagonist) (converted).
Source text: as §1

In another experiment the target is T4, Dopamine D1 (Homo sapiens, UniProt P21728).
T4 construct: gene DRD1
Nature of the experiment: cell-based. Details: off-target selectivity panel, receptor antagonist, channel blocker or transporter inhibition mode, pXC50. The note with it: antagonist mode; read-out: pXC50 (antagonist) (converted).
Source text: as §1

A further experiment addresses T5, Dopamine D2 (Homo sapiens, UniProt P14416).
T5 construct: gene DRD2
Nature of the experiment: cell-based. Details: off-target selectivity panel, receptor antagonist, channel blocker or transporter inhibition mode, pXC50. The note with it: antagonist mode; read-out: pXC50 (antagonist) (converted).
Source text: as §1

The next experiment concerns the target T6, Histamine H1 (Homo sapiens, UniProt P35367).
T6 construct: gene HRH1
Nature of the experiment: cell-based. Also noted: off-target selectivity panel, receptor antagonist, channel blocker or transporter inhibition mode, pXC50. The note with it: antagonist mode; read-out: pXC50 (antagonist) (converted).
Source text: as §1

Another experiment has as its target T7, KCNQ1/minK (Homo sapiens, UniProt P15382+P51787).
T7 construct: gene KCNE1
Nature of the experiment: cell-based. Also noted: off-target selectivity panel, receptor antagonist, channel blocker or transporter inhibition mode, pXC50. Particulars: read-out: pXC50 (blocker / transporter inhibition) (converted).
Source text: as §1

Another experiment addresses T8, Kv1.5 (Homo sapiens, UniProt P22460).
T8 construct: gene KCNA5
As to the kind of experiment: cell-based. The note with it: read-out: pXC50 (blocker / transporter inhibition) (converted). Details: off-target selectivity panel, receptor antagonist, channel blocker or transporter inhibition mode, pXC50.
Source text: as §1

The target in the next experiment is T9, Muscarine M1 (Homo sapiens, UniProt P11229).
T9 construct: gene CHRM1
Nature of the experiment: cell-based. The note with it: antagonist mode; read-out: pXC50 (antagonist) (converted). Also noted: off-target selectivity panel, receptor antagonist, channel blocker or transporter inhibition mode, pXC50.
Source text: as §1

The target of the next experiment is T10, NMDA Channel (NR2B) (Homo sapiens, UniProt Q13224).
T10 construct: gene GRIN2B
As to the kind of experiment: cell-based. The note with it: read-out: pXC50 (blocker / transporter inhibition) (converted). Details: off-target selectivity panel, receptor antagonist, channel blocker or transporter inhibition mode, pXC50.
Source text: as §1

The next experiment concerns the target T11, NaV1.5 (Homo sapiens, UniProt Q14524).
T11 construct: gene SCN5A
Nature of the experiment: cell-based. Details: off-target selectivity panel, receptor antagonist, channel blocker or transporter inhibition mode, pXC50. Particulars: read-out: pXC50 (blocker / transporter inhibition) (converted).
Source text: as §1

The next experiment concerns the target T12, Neurokinin NK1 (Homo sapiens, UniProt P25103).
T12 construct: gene TACR1
Nature of the experiment: cell-based. Details: off-target selectivity panel, receptor antagonist, channel blocker or transporter inhibition mode, pXC50. Particulars: antagonist mode; read-out: pXC50 (antagonist) (converted).
Source text: as §1

A further experiment has as its target T13, OATP1B1 (Homo sapiens, UniProt Q9Y6L6).
T13 construct: gene SLCO1B1
As to the kind of experiment: cell-based. Details: off-target selectivity panel, receptor antagonist, channel blocker or transporter inhibition mode, pXC50. The note with it: read-out: pXC50 (blocker / transporter inhibition) (converted).
Source text: as §1

The target in another experiment is T14, Serotonin 5HT1B (Homo sapiens, UniProt P28222).
T14 construct: gene HTR1B
T14 sequence (P28222 whole entry): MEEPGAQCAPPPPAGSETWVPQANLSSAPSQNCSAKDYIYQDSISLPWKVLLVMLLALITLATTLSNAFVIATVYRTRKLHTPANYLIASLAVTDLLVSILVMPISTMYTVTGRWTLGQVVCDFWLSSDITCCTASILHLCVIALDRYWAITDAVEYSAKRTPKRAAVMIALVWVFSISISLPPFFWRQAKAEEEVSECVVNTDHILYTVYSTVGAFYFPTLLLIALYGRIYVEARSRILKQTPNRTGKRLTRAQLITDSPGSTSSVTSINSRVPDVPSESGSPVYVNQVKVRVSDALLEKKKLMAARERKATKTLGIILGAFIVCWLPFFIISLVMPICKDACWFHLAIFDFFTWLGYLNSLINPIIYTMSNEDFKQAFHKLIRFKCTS
Nature of the experiment: cell-based. Also noted: off-target selectivity panel, receptor antagonist, channel blocker or transporter inhibition mode, pXC50. Particulars: antagonist mode; read-out: pXC50 (antagonist) (converted).
Source text: as §1

Another experiment deals with T15, Serotonin 5HT2A (Homo sapiens, UniProt P28223).
T15 construct: gene HTR2A
As to the kind of experiment: cell-based. Details: off-target selectivity panel, receptor antagonist, channel blocker or transporter inhibition mode, pXC50. The note with it: antagonist mode; read-out: pXC50 (antagonist) (converted).
Source text: as §1

The target of a further experiment is T16, Serotonin 5HT2C (Homo sapiens, UniProt P28335).
T16 construct: gene HTR2C
T16 sequence (P28335 whole entry): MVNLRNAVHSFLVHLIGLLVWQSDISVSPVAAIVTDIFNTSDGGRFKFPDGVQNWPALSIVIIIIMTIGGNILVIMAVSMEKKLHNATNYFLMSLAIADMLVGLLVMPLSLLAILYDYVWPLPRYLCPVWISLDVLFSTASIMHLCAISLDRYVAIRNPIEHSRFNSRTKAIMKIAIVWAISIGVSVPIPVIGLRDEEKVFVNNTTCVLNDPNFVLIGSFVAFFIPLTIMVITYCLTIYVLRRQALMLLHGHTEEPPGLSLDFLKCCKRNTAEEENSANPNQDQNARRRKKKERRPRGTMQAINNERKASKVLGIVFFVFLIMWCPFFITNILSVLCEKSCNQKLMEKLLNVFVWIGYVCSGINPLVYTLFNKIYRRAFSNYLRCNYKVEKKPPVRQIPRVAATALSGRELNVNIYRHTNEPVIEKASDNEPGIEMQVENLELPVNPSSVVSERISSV
As to the kind of experiment: cell-based. Details: off-target selectivity panel, receptor antagonist, channel blocker or transporter inhibition mode, pXC50. The note with it: antagonist mode; read-out: pXC50 (antagonist) (converted).
Source text: as §1

A further experiment addresses T17, Vasopressin V1a (Homo sapiens, UniProt P37288).
T17 construct: gene AVPR1A
As to the kind of experiment: cell-based. Details: off-target selectivity panel, receptor antagonist, channel blocker or transporter inhibition mode, pXC50. Particulars: antagonist mode; read-out: pXC50 (antagonist) (converted).
Source text: as §1

Another experiment addresses T18, hERG (Homo sapiens, UniProt Q12809).
T18 construct: gene KCNH2
Nature of the experiment: cell-based. Details: off-target selectivity panel, receptor antagonist, channel blocker or transporter inhibition mode, pXC50. Particulars: read-out: pXC50 (blocker / transporter inhibition) (converted).
Source text: as §1

In the next experiment the target is T19, α1 nicotinic AChR (Homo sapiens, UniProt P02708).
T19 construct: gene CHRNA1
T19 sequence (P02708 whole entry): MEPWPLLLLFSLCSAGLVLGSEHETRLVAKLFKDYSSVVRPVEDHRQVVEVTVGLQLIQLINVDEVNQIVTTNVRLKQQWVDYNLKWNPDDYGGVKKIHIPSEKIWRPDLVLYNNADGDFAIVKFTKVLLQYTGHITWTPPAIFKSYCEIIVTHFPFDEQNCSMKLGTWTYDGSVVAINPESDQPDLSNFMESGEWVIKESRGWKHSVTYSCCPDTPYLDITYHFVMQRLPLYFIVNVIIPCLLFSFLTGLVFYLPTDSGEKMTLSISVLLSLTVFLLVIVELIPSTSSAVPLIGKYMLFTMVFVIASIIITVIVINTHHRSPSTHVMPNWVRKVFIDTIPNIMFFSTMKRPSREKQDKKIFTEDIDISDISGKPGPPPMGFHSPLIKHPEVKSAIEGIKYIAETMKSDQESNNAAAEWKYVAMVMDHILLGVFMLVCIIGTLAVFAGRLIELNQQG
As to the kind of experiment: cell-based. Details: off-target selectivity panel, receptor antagonist, channel blocker or transporter inhibition mode, pXC50. The note with it: read-out: pXC50 (blocker / transporter inhibition) (converted).
Source text: as §1

T5 sequence (P14416 whole entry): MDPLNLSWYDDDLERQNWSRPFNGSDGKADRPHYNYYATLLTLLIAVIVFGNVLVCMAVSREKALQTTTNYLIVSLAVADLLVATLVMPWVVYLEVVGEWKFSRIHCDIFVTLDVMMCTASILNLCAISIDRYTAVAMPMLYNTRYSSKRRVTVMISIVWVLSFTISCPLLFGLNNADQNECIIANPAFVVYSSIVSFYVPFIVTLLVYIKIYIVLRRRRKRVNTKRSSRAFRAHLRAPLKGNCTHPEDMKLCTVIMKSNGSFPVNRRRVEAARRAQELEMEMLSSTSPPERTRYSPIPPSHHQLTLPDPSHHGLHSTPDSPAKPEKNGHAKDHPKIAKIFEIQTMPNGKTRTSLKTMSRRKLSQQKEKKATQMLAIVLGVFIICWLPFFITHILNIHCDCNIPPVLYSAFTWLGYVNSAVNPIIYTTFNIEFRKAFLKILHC
T6 sequence (P35367 whole entry): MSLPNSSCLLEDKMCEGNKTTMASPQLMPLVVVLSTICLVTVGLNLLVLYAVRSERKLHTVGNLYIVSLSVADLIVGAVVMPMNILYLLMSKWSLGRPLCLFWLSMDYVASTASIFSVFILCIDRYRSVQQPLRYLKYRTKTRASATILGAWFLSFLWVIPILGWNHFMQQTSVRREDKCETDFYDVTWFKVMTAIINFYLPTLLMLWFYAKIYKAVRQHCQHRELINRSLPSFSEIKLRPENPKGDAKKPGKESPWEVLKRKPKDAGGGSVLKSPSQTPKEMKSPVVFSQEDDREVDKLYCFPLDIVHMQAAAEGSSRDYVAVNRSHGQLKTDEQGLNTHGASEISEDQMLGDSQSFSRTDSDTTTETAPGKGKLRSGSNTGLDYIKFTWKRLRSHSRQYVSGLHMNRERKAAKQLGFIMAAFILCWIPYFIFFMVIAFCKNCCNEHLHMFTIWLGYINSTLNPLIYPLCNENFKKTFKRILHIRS
T1 sequence (P9WQD9 whole entry): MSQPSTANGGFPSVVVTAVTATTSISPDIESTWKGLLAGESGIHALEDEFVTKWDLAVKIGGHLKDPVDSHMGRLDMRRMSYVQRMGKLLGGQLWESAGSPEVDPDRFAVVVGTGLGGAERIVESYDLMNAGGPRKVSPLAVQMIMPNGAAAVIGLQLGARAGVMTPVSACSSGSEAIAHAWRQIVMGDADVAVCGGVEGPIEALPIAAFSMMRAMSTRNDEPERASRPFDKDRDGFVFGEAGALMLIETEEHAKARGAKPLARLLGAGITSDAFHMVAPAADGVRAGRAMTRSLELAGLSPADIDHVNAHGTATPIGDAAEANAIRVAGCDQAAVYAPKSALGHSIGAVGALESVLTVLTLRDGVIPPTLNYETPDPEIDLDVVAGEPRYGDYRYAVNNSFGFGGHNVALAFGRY
T3 sequence (P07550 whole entry): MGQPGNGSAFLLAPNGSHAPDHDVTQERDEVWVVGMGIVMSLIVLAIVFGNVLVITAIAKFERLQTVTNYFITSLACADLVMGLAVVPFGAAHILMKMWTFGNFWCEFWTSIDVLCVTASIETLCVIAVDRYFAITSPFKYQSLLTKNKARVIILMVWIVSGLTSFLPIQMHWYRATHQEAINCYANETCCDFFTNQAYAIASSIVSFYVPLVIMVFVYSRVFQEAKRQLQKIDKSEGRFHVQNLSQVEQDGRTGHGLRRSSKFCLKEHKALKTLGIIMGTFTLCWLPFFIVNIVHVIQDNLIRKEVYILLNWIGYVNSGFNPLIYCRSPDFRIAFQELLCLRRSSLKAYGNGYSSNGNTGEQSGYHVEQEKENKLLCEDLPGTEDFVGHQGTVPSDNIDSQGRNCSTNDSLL
T8 sequence (P22460 whole entry): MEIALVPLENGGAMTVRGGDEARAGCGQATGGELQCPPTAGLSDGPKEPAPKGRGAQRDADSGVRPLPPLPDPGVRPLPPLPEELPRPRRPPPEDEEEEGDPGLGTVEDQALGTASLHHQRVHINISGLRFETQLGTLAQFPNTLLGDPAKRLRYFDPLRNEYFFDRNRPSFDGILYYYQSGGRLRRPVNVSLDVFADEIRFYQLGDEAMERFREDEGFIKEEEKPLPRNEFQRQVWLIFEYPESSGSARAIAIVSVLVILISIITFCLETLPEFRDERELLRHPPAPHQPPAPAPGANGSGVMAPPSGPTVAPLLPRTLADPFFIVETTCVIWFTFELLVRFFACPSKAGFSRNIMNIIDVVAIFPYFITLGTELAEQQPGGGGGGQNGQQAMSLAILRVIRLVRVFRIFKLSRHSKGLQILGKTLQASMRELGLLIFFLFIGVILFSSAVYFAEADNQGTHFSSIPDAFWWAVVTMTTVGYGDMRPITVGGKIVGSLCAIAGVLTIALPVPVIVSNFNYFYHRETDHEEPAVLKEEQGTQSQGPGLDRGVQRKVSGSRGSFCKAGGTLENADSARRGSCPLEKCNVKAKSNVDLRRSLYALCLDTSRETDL
T12 sequence (P25103 whole entry): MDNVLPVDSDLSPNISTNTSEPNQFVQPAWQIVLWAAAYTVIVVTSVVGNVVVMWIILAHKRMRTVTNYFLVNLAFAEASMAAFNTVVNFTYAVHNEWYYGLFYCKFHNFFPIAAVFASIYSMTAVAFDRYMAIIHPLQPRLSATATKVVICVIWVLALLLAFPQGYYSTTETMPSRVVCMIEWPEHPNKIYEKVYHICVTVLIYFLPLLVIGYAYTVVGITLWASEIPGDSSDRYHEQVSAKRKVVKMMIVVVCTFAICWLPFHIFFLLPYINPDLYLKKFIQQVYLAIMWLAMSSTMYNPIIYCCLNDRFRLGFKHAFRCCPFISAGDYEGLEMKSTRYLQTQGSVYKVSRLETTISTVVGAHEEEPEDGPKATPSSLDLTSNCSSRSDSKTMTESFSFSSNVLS

Take `CCCCS(=O)(=O)Nc1ccc2cnn(C)c2c1` [GSK3011724A]: the Kd at NQO2 is 4 to 6 µM; on KasA it was 10 to 20 nM; at Pks10 it was 1400 nM. Besides, the IC50 at Adrenergic α1B was > 25.1 µM; on Adrenergic β2, > 100 µM; at Dopamine D1 it was > 100 µM; at Dopamine D2 it was > 100 µM; at Histamine H1 it was > 25.1 µM; at KCNQ1/minK, > 25.1 µM. Besides, the IC50 on Kv1.5 was > 50.1 µM; on Muscarine M1, > 50.1 µM; on NMDA Channel (NR2B), > 50.1 µM; on NaV1.5, > 100 µM; on Neurokinin NK1, > 25.1 µM; on OATP1B1 it was > 50.1 µM. The IC50 on Serotonin 5HT1B is > 100 µM; at Serotonin 5HT2A, > 25.1 µM; on Serotonin 5HT2C, > 25.1 µM; on Vasopressin V1a, > 50.1 µM; on hERG, > 63.1 µM; at α1 nicotinic AChR, > 50.1 µM.
